Test results reported in ChEMBL document CHEMBL5465560, “Selectivity Literature for EUbOPEN Chemogenomic Library” (2024).
One block for each compound: values may come before it.

Columns and labels:
[1] = target: Tyrosine-protein kinase FRK (Homo sapiens) (UniProt P42685); assay: Selectivity interaction (KinomeScan (DiscoverX)) EUB0001049a FRK; conditions: at 1 µM
[2] = target: T1, Receptor-interacting serine/threonine-protein kinase 1 (Homo sapiens) (UniProt Q13546); assay: Selectivity interaction (KinomeScan (DiscoverX)) EUB0001049a RIPK1; conditions: at 1 µM
T1 sequence (whole entry): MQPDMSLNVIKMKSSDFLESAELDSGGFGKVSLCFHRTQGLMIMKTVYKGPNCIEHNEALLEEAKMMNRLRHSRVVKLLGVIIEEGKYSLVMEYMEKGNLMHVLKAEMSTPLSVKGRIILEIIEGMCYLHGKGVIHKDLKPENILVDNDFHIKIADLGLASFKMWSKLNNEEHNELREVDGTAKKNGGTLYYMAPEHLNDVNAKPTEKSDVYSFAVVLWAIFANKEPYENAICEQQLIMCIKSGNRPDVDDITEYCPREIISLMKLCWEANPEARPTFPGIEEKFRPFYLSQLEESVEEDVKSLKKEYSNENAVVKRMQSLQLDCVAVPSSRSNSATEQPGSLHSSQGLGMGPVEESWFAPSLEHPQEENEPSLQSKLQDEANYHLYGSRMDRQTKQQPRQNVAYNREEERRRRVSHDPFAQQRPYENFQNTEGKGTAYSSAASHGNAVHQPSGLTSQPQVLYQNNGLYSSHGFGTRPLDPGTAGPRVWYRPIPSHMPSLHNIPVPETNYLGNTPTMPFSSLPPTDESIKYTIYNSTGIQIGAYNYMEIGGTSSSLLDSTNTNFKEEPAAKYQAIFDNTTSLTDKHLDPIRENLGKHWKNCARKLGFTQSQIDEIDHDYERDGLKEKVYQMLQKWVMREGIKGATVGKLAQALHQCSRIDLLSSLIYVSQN

Misshapen-like kinase 1 = Misshapen-like kinase 1 (Homo sapiens, UniProt Q8N4C8); assay: Selectivity interaction (Ambit KINOMEscan and KiNATiv profiling in Jurkat cells) EUB0000090b MINK1; format: cell-based; conditions: at 1 µM
[3] = target: Phosphatidylinositol 4,5-bisphosphate 3-kinase catalytic subunit beta isoform (Homo sapiens) (UniProt P42338); assay: Selectivity interaction (Adapta Assay) EUB0001632a PIK3CB; conditions: at 10 µM
[4] = test system: Serine/threonine-protein kinase B-raf (Homo sapiens), P15056 [V600E]; assay: (§1) Selectivity interaction (Kinase panel (Z-LYTE Assay)) EUB0001632a BRAF; conditions: at 10 µM
[5] = target: Serine/threonine-protein kinase B-raf (Homo sapiens) (UniProt P15056); assay: as §1; conditions: at 10 µM
[6] = target: Protein-tyrosine kinase 6 (Homo sapiens, UniProt Q13882); assay: Selectivity interaction (KinomeScan (DiscoverX)) EUB0000595a PTK6; conditions: at 10 µM
[7] = target: Bone morphogenetic protein receptor type-1B (Homo sapiens, UniProt O00238); assay: Selectivity interaction (KinomeScan (DiscoverX)) EUB0001079a BMPR1B; conditions: at 1 µM
[8] = target: T2, MAP/microtubule affinity-regulating kinase 4 (Homo sapiens) (UniProt Q96L34); assay: Selectivity interaction (KinomeScan (DiscoverX)) EUB0000092b MARK4; conditions: at 10 µM
T2 sequence (whole entry): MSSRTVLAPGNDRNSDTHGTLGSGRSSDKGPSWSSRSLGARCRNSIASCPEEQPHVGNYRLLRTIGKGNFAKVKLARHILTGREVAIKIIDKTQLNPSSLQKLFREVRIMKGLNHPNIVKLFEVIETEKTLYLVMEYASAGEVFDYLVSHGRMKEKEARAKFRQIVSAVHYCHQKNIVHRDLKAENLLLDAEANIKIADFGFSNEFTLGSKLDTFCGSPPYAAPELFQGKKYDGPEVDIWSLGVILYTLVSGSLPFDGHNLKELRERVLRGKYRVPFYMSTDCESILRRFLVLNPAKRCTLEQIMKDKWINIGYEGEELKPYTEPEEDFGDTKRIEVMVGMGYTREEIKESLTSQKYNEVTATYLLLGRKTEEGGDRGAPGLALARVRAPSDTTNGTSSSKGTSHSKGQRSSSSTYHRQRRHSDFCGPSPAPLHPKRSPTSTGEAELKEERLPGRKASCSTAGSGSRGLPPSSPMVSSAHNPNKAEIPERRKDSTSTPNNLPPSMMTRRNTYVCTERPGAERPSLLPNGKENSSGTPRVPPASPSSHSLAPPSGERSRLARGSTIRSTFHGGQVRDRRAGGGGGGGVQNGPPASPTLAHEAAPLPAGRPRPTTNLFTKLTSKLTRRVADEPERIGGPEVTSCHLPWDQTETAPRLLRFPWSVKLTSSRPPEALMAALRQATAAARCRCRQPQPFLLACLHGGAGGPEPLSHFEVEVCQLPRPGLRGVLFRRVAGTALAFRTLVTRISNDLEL

[9] = target: T3, Ephrin type-A receptor 3 (Homo sapiens) (UniProt P29320); assay: Selectivity interaction (Upstate Kinase Profiler service (Millipore)) EUB0000056c EPHA3; conditions: at 1 µM
T3 sequence (whole entry): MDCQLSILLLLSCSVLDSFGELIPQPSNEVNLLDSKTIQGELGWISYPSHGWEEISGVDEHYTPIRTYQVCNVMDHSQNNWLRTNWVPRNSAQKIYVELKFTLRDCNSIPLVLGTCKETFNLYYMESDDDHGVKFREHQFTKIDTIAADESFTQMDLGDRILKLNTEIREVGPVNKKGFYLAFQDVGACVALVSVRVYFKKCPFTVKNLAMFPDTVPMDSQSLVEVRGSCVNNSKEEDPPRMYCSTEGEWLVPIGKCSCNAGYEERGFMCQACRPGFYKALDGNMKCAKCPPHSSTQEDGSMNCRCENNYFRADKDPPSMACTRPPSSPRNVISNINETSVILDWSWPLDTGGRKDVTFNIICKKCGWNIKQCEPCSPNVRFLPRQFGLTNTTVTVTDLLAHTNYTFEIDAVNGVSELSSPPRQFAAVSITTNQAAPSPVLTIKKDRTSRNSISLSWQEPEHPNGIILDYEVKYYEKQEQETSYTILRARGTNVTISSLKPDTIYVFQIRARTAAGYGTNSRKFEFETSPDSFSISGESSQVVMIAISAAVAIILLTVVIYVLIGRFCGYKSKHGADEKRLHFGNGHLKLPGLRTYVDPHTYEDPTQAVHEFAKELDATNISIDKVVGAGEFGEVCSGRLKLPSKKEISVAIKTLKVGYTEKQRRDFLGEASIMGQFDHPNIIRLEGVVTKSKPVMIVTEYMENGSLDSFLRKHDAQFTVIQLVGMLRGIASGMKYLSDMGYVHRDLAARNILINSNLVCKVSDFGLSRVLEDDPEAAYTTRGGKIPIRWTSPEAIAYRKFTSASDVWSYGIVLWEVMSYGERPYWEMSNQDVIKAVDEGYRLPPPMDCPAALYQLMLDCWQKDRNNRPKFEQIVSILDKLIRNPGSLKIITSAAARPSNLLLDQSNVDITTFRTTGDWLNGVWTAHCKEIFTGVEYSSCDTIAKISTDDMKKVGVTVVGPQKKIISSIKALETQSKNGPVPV

[10] = target: Mitogen-activated protein kinase kinase kinase kinase 5 (Homo sapiens) (UniProt Q9Y4K4); assay: Selectivity interaction (KinomeScan (DiscoverX)) EUB0001619a MAP4K5; conditions: at 1 µM
Mitogen-activated protein kinase kinase kinase kinase 5 (Homo sapiens), sequence (Q9Y4K4 whole entry, looked up): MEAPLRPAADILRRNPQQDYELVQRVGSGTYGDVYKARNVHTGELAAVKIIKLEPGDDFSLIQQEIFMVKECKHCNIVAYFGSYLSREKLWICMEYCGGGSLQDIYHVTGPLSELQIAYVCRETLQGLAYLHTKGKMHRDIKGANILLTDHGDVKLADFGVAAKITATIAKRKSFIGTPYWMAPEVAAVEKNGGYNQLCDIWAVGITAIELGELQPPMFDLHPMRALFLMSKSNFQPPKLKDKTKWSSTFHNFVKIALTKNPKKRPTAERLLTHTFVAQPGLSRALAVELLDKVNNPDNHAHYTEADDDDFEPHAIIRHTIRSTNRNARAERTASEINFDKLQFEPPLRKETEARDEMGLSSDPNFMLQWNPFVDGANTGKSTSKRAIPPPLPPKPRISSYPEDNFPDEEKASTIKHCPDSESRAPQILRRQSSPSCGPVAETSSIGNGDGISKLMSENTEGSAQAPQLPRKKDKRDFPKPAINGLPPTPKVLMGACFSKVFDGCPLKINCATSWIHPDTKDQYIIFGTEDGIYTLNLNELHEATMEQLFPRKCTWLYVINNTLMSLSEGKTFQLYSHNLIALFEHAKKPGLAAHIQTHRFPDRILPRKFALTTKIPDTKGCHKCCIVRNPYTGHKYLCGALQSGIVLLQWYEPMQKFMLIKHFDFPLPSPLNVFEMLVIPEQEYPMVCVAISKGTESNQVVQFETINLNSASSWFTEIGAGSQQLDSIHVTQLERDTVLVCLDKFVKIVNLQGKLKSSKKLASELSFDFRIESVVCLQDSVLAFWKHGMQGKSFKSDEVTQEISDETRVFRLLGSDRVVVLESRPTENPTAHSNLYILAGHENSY

Serine/threonine-protein kinase B-raf (Homo sapiens), P15056 [V600E], sequence (P15056 whole entry V600E): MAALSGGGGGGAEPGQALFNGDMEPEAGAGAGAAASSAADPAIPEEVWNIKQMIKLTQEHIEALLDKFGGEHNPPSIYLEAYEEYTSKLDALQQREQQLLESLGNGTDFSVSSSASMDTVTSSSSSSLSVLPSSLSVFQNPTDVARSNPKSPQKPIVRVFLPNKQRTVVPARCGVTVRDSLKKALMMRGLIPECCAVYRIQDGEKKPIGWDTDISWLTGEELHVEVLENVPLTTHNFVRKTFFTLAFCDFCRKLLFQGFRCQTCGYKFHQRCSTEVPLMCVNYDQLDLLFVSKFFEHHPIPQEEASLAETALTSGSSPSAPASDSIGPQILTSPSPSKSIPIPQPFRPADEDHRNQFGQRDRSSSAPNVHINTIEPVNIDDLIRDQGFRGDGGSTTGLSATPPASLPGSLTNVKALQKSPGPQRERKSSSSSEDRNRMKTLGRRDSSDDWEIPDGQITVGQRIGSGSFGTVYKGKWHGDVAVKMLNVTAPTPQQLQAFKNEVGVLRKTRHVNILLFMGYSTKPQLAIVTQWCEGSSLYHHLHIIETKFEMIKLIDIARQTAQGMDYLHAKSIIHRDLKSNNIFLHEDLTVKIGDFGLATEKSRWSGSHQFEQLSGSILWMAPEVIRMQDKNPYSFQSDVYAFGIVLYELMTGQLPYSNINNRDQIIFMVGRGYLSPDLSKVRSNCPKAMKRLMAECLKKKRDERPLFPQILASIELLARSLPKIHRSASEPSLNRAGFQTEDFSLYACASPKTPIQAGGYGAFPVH
Bone morphogenetic protein receptor type-1B, sequence (O00238 whole entry): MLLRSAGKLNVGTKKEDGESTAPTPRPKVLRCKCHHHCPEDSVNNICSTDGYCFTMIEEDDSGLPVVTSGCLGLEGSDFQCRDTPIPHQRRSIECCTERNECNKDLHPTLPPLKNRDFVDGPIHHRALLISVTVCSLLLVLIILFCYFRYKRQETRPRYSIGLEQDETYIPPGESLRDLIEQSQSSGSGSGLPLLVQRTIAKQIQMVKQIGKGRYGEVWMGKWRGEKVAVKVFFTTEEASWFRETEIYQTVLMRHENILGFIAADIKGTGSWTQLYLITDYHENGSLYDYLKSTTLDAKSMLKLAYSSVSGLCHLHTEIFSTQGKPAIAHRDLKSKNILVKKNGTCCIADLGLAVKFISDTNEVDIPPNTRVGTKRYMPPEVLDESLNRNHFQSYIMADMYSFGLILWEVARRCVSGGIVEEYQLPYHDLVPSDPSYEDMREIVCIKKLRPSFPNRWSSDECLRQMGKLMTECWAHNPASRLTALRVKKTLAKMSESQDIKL
Misshapen-like kinase 1, sequence (Q8N4C8 whole entry, looked up, canonical isoform): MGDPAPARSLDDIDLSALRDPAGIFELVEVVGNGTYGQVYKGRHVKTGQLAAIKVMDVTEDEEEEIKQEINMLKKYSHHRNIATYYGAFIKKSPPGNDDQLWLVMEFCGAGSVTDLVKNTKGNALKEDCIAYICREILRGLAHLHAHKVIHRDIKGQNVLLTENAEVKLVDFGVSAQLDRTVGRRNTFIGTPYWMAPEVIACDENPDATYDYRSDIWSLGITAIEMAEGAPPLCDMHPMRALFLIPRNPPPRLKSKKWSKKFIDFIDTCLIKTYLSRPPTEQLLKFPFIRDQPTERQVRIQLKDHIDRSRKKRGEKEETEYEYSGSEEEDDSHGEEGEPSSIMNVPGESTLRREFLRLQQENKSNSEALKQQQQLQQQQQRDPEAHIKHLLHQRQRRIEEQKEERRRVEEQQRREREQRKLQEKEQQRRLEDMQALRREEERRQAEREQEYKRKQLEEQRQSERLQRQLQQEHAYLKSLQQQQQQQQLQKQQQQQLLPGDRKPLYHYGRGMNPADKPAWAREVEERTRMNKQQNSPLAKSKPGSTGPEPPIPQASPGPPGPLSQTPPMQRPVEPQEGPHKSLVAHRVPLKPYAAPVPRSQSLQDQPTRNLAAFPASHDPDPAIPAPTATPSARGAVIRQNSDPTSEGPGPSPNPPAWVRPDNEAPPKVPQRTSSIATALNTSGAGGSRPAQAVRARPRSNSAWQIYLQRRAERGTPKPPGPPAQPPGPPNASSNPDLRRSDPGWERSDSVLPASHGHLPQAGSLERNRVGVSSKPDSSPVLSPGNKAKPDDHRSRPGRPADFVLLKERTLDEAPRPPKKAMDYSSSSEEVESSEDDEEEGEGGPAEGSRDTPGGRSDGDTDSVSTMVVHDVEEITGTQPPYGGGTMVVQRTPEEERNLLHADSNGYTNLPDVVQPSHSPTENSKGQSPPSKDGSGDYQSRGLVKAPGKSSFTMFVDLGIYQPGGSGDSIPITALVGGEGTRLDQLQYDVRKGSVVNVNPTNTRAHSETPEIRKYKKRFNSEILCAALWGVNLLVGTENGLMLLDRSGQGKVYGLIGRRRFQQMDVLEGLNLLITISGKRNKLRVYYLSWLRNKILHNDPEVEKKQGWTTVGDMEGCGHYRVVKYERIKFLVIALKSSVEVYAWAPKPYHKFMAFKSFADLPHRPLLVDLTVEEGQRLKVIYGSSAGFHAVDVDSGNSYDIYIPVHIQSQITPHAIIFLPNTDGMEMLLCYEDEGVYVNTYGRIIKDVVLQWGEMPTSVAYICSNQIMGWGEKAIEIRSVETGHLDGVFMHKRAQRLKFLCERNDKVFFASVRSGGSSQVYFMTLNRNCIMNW
Serine/threonine-protein kinase B-raf (Homo sapiens), sequence (P15056 whole entry): as the sequence (P15056 whole entry V600E) above, with E600V counted along it
Protein-tyrosine kinase 6, sequence (Q13882 whole entry, looked up): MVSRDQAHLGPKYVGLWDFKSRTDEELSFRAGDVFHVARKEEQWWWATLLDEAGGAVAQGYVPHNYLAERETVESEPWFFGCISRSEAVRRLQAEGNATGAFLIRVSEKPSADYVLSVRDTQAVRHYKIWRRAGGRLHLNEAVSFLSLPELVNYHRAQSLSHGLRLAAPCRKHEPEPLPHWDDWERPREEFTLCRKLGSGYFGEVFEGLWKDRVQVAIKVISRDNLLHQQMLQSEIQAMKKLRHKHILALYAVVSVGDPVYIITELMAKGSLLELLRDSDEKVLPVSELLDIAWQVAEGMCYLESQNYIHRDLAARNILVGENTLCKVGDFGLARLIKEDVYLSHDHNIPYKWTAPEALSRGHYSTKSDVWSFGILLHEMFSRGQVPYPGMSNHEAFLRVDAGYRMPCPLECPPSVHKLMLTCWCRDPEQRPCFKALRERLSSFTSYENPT
Phosphatidylinositol 4,5-bisphosphate 3-kinase catalytic subunit beta isoform (Homo sapiens), sequence (P42338 whole entry, looked up, canonical isoform): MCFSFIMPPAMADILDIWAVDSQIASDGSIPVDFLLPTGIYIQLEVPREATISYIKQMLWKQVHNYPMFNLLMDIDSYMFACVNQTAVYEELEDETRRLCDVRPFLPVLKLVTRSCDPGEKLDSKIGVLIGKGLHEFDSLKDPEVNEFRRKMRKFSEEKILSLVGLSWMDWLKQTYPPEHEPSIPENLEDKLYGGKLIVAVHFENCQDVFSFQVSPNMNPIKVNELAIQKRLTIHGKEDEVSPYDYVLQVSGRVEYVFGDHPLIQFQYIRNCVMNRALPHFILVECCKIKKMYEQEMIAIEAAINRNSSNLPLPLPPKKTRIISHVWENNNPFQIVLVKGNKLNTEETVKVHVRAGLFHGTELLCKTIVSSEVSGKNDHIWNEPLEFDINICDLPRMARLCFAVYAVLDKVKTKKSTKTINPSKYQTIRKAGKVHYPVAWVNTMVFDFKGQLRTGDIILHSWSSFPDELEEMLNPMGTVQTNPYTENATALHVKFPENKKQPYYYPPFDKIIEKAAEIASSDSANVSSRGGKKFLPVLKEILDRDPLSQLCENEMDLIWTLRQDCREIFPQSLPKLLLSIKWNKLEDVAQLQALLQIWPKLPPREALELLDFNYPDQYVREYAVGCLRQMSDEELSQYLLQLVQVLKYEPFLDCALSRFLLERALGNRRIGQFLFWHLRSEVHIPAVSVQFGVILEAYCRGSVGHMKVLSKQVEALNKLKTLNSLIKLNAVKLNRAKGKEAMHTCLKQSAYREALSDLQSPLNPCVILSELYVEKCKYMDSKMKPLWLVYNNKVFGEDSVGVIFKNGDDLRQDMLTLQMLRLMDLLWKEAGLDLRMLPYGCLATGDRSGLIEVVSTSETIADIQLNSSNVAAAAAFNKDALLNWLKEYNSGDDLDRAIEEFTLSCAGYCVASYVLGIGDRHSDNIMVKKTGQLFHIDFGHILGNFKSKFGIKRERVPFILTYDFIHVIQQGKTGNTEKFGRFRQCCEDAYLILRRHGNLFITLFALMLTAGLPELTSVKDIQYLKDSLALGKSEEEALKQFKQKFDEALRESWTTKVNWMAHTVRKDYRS

SMILES: COc1cc(Nc2nc(C)cc(-c3cnn4nc(OC)ccc34)n2)cc(C(F)(F)F)c1
- % of control [1]: 100%
- % of control [2]: 93%

SMILES: CN(C)C/C=C/C(=O)Nc1ccc(C(=O)N2CCCC(Nc3ncc(Cl)c(-c4c[nH]c5ccccc45)n3)C2)cc1 (stereo unspecified)
- % of control (Misshapen-like kinase 1): 89%

- % of inhibition [3]: 11.6%
- % of control [4]: 46.2%
- % of control [5]: -4.02%
SMILES: Cn1cc(-n2cnc3c(NCc4nc5cc(Cl)c(Cl)cc5[nH]4)nc(N4CCOCC4)nc32)cn1

SMILES: COCC(=O)NC/C=C/c1ccc2ncnc(Nc3ccc(Oc4ccc(C)nc4)c(C)c3)c2c1 [CP-724714]
- % of control [6]: 100%

SMILES: Nc1cnc(N2CCc3cc(S(=O)(=O)Nc4c(F)cc(Cl)cc4F)cc(N4CCCC4=O)c32)nc1 [TP-020n]
- % of control [7]: 100%

SMILES: CCC(=O)N1CCN(c2ccc(-n3c(=O)ccc4cnc5ccc(-c6cnc7ccccc7c6)cc5c43)cc2C(F)(F)F)CC1
- % of control [8]: 100%

- % of inhibition [9]: -1%
SMILES: Cc1ccc(-c2ccc3c(ccc4sc5c(c43)NC[C@@H](C)NC5=O)n2)cn1

SMILES: N#Cc1cccc(-c2c[nH]c3ncnc(N4CCOCC4)c23)c1
- % of control [10]: 53%
